Reference: a melting point compilation (Tetko et al.)

| SMILES | melting point [°C] |
| --- | --- |
| Cc1nnc(S)o1 | 239 to 241 |
| O=C1NC(=O)c2cc(S(=O)(=O)Cl)ccc21 | 163 to 165 |
| Cc1cccnc1CC(=O)C(F)(F)F | 121 to 123 |
| Nc1ccc(-c2ccc[nH]2)cc1 | 120 to 122 |
| Sc1nnnn1CC1CCCO1 (stereo not given) | 28 to 30 |
| Cc1cc(N)c2cccnc2c1C | 124 to 126 |
| Cc1cc(Cl)c(N)cc1Cl | 86 to 88 |
| ClCc1ccc(-n2cccn2)cc1 | 57 to 59 |
| Nc1cccc(N2C(=O)CNC2=O)c1 | 156 to 158 |
| CC(C(=O)O)C(NC(=O)OC(C)(C)C)c1ccccc1 (stereo not given) | 71 to 73 |
| CCCC1CNCCN1 (stereo not given) | 59 to 61 |
| Sc1nnnn1-c1ccccc1 | 145 to 147 |
| O=C(O)COc1ccc(C(=O)c2ccccc2)cc1 | 152 to 156 |
| COc1ccccc1C(NC(=O)OC(C)(C)C)C(=O)O (stereo not given) | 146 to 148 |
| CC(Cl)C(=O)NC(N)=O (stereo not given) | 159 to 161 |
| COc1ccccc1-c1nnc(CCl)o1 | 86 to 88 |
| Cc1ccccc1C1CNC(=O)C1 (stereo not given) | 115 to 117 |
| CC(C)Sc1ccc(Cl)nn1 | 56 to 58 |
| Cc1n[nH]c(-c2ccccc2I)n1 | 154 to 156 |
| Nc1ccc(OCc2ccco2)c(Cl)c1 | 72 to 74 |
| Cc1cc(C)c(Nc2nnc(S)s2)c(Cl)c1 | 198 to 200 |
| OCCCOc1ccc(Br)cc1 | 34 to 36 |

| SMILES | melting point [°C] |
| --- | --- |
| O=[N+]([O-])c1ccccc1CSc1ncccn1 | 60 to 62 |
| N#Cc1ccccc1NC(=O)c1ccccn1 | 136 to 138 |
| Cc1cc(C)c2c(c1)NC(=O)C2=O | 233 to 235 |
| Nc1nc(C(=O)Nc2ccccc2)cs1 | 169 to 171 |
| CC(=O)c1c[nH]c2cc(Cl)ccc12 | 229 to 231 |
| CC(C)c1nn(-c2ccccc2)c(Cl)c1C=O | 53 to 55 |
| Cc1ccc(-c2nnc(S)o2)cc1C | 195 to 197 |
| CNc1ccc(Br)cc1[N+](=O)[O-] | 101 to 103 |
| CC(C)CNc1nc(-c2ccccc2[N+](=O)[O-])cs1 | 86 to 88 |
| COc1ccc(C=NO)cc1 | 64 to 66 |
| COC(=O)C1CSCC(c2ccccc2)N1 (stereo not given) | 96 to 98 |
| COc1cc(-c2nnc(CCl)o2)cc(OC)c1OC | 121 to 123 |
| COCCOc1ccc2[nH]ccc2c1 | 61 to 63 |
| O=C(NC(CO)C(=O)O)c1ccccc1 (stereo not given) | 159 to 161 |
| O=C1Nc2c(F)cc(Cl)cc2C1=O | 219 to 221 |
| COC(=O)C(=O)Nc1ccc(C)cc1 | 147 to 149 |
| O=c1c2cnn(-c3ccccc3)c2nnn1CCl | 179 to 181 |
| CC(=O)CC(=O)Nc1ccc(C(C)C)cc1 | 68 to 70 |
| O=S(=O)(Nc1nc2ccccc2nc1Cl)c1ccc(F)cc1 | 181 to 183 |
| CC(=O)N(c1ccccc1)c1nc(C=O)cs1 | 150 to 152 |
| N#Cc1ccc2nccnc2c1 | 179 to 181 |
| CCc1cccc(C)c1NC(=O)CCl | 100 to 110 |

| SMILES | melting point [°C] |
| --- | --- |
| NC(=O)CCNc1cc(Cl)ncn1 | 165 to 167 |
| CS(=O)(=O)c1cccc(NN)c1 | 93 to 95 |
| NC(C(=O)O)(c1cc(F)cc(F)c1)C(F)(F)F (stereo not given) | 121 to 123 |
| O=C(O)c1cccc(S(=O)(=O)F)c1 | 152 to 154 |
| CCOC(=O)Nc1ccc(N)cc1 | 73 to 75 |
| O=[N+]([O-])c1ccccc1NCCO | 76 to 78 |
| Nc1ccc(O)c(S(N)(=O)=O)c1 | 169 to 171 |
| Cc1noc(S)n1 | 123 to 125 |
| Cc1ccc(N)cc1S(=O)(=O)Nc1ccc(SC(F)F)cc1 | 227 to 230 |
| NCc1csc(CNC(=O)c2ccccc2)n1 | 84 to 86 |
| CCOc1ccc(NC(C)=O)cc1S(N)(=O)=O | 187 to 189 |
| Nc1ccc(S(=O)(=O)NCC(F)(F)F)cc1 | 128 to 130 |
| Cc1[nH]c(=O)[nH]c(=O)c1C#N | 351 to 353 |
| CCOC(=O)c1ccn2nc3ncccc3c2n1 | 209 to 211 |
| COc1cc(Br)c2c(c1)NC(=O)C2=O | 179 to 181 |
| Nc1nc(-c2ccsc2)ns1 | 172 to 174 |
| NCc1cc2ccccc2[nH]1 | 71 to 73 |
| Cc1n[nH]cc1N | 93 to 95 |
| CC(CC(=N)N)NC(=O)OC(C)(C)C (stereo not given) | 91 to 93 |
| N#CCCn1cc(C=O)c(-c2ccccc2)n1 | 74 to 76 |
| O=C1Nc2cc(OC(F)(F)F)ccc2C1=O | 183 to 185 |

Now from value to compound:

| melting point [°C] | SMILES |
| --- | --- |
| 226 to 228 | Cc1nc(-c2cc(C(=O)O)cs2)cs1 |
| 182 to 184 | CCN(CC)S(=O)(=O)c1cc(C(=O)O)ccc1OC |
| 244 to 246 | O=C(O)C1=C(c2ccccc2)N2CCS(=O)(=O)N=C2S1 |
| 196 to 198 | COc1ccc(CNC(=O)c2c[nH]nc2N)cc1 |
| 99 to 101 | Cc1cccc(Cl)c1OCC(=O)O |
| 159 to 161 | O=C(O)Cc1csc(-c2ccc(Cl)cc2Cl)n1 |
| 142 to 144 | O=C(O)Cc1csc(-c2c(Cl)cccc2Cl)n1 |
| 31 to 33 | Cn1cc(C=O)cn1 |
| 151 to 153 | O=C1CCCS(=O)(=O)c2ccccc21 |
| 92 to 94 | Cn1cc(Nc2cccc(N)c2)cn1 |
| 112 to 114 | CCOC(C)c1nc(C)c(C(=O)O)s1 (stereo not given) |
| 99 to 101 | O=C(Nc1ccccc1[N+](=O)[O-])N1CCCC1 |
| 132 to 134 | O=C(O)c1ccc(NC(=O)c2ccco2)cc1 |
| 171 to 173 | Cc1ccc(-c2ncc(C(=O)O)s2)c(C)c1 |
| 73 to 75 | COC(C)c1nc(C(=O)O)cs1 (stereo not given) |
| 165 to 167 | O=C(O)c1ccc(COc2ccc(F)cc2)o1 |
| 145 to 147 | O=C(O)C1CCCN1C(=O)c1cccs1 (stereo not given) |
| 247 to 249 | CC1(c2ccc(Br)cc2)NC(=O)N(CC(=O)O)C1=O (stereo not given) |
| 180 to 182 | CC1CCN(S(=O)(=O)c2ccc(C(=O)O)cc2)CC1 |
| 193 to 195 | O=C(O)c1ccc(-c2ccc(F)cc2)o1 |

| melting point [°C] | SMILES |
| --- | --- |
| 149 to 151 | CCc1[nH]nc(C(=O)O)c1[N+](=O)[O-] |
| 139 to 141 | O=C1CCCC(=O)N1c1ncc(Br)s1 |
| 121 to 123 | C#CCSc1cccc(C(=O)O)c1 |
| 68 to 70 | Cc1ccc(C#N)c(N2CCCC2)c1 |
| 169 to 171 | O=C(O)c1c(-n2cccc2)sc2c1CCSC2 |
| 230 to 232 | Cc1ccc(C(=O)O)cc1NC(=O)c1ccco1 |
| 197 to 199 | CN(C)S(=O)(=O)c1c[nH]c(C(=O)O)c1 |
| 145 to 147 | CCS(=O)(=O)Nc1ccccc1C(=O)O |
| 214 to 216 | O=C(O)c1cnn2c1CCCC2 |
| 123 to 125 | CS(=O)(=O)NC1CCCNC1 (stereo not given) |
| 319 to 321 | O=C(O)c1cc(N2CCNC2=O)ccc1F |
| 110 to 112 | O=C(O)CCS(=O)c1ccc2c(c1)OCCO2 (stereo not given) |
| 58 to 60 | O=C(O)C1CSCCS1 (stereo not given) |
| 126 to 128 | NCc1ccc(NC(=O)CN2CCc3ccccc32)cc1 |
| 141 to 143 | CCc1ccc(C(=O)O)cc1C#N |
| 169 to 171 | O=C(O)C1=NN(c2ccccc2)C(=O)CC1 |
| 144 to 146 | COc1ncc(N)cc1C(N)=O |
| 233 to 235 | O=C(O)c1ccc(I)c(F)c1 |
| 97 to 99 | NCc1ccccc1N1CCCC(C(N)=O)C1 (stereo not given) |
| 78 to 80 | NC1CCN(C(=O)C2CCCCC2)CC1 |
